In ChEMBL document CHEMBL5120950, “Discovery and Mechanistic Study of Mycobacterium tuberculosis PafA Inhibitors” (J Med Chem, 2022):
Values after ≈ are worked out from the molar mass of the structure shown. Active and inactive are the calls of the source. The rule behind the calls is not given here.

Assays:
[1] = molecular target: T1, Pup--protein ligase (Mycobacterium tuberculosis) (UniProt P9WNU7); assay: Activation of Mycobacterium tuberculosis PafA expressed in Escherichia coli BL-21(DE3) assessed as pup-ylation using Mtb PknB substrate at 20 uM by SDS-PAGE analysis; conditions: filed as activator
T1 sequence (whole entry): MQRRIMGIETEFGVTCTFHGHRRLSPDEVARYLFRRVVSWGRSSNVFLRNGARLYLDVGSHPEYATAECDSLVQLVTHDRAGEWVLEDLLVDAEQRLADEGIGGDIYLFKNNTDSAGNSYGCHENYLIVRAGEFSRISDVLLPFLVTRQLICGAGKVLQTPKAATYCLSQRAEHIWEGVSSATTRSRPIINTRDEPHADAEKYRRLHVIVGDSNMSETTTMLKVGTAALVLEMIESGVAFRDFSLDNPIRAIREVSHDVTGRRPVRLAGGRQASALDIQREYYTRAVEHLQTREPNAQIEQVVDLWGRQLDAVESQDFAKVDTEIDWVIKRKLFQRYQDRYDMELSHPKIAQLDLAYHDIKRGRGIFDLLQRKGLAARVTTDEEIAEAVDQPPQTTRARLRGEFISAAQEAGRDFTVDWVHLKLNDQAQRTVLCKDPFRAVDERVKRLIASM

[2] = molecular target: T1, Pup--protein ligase (Mycobacterium tuberculosis); assay: Activation of Mycobacterium tuberculosis PafA expressed in Escherichia coli BL-21(DE3) assessed as pup-ylation using Mtb KasA substrate at 20 uM by SDS-PAGE analysis; conditions: filed as activator
[3] = molecular target: T1, Pup--protein ligase (Mycobacterium tuberculosis); assay: Activation of Mycobacterium tuberculosis PafA expressed in Escherichia coli BL-21(DE3) assessed as pup-ylation using Mtb DHFR substrate at 20 uM by SDS-PAGE analysis; conditions: filed as activator
[4] = molecular target: T1, Pup--protein ligase (Mycobacterium tuberculosis); assay: Activation of Mycobacterium tuberculosis PafA expressed in Escherichia coli BL-21(DE3) assessed as pup-ylation using Mtb PanB substrate at 20 uM by SDS-PAGE analysis; conditions: filed as activator
[5] = molecular target: T1, Pup--protein ligase (Mycobacterium tuberculosis); assay: Activation of Mycobacterium tuberculosis PafA expressed in Escherichia coli BL-21(DE3) assessed as pup-ylation using Mtb InhA substrate at 20 uM by SDS-PAGE analysis; conditions: filed as activator
[6] = molecular target: T1, Pup--protein ligase (Mycobacterium tuberculosis); assay: Inhibition of Mycobacterium tuberculosis PafA expressed in Escherichia coli BL-21(DE3) assessed as inhibition of pup-ylation using Mtb PanB substrate at 20 uM by SDS-PAGE analysis
[7] = molecular target: T1, Pup--protein ligase (Mycobacterium tuberculosis); assay: Inhibition of Mycobacterium tuberculosis PafA expressed in Escherichia coli BL-21(DE3) assessed as inhibition of pup-ylation using Mtb PknB substrate at 20 uM by SDS-PAGE analysis
[8] = molecular target: T1, Pup--protein ligase (Mycobacterium tuberculosis); assay: Inhibition of Mycobacterium tuberculosis PafA expressed in Escherichia coli BL-21(DE3) assessed as inhibition of pup-ylation using Mtb InhA substrate at 20 uM by SDS-PAGE analysis
[9] = tested on: Mycobacterium tuberculosis; assay: Antimycobacterial activity against Mycobacterium tuberculosis H37Ra assessed as inhibition of growth measured after 7 days by microplate reader; assay type: functional; conditions: 168 h, time 7 day
[10] = molecular target: T2, Pup--protein ligase (Corynebacterium glutamicum) (UniProt Q8NQE1); assay: Inhibition of Corynebacterium glutamicum PafA expressed in Escherichia coli BL-21(DE3) assessed as inhibition of pup-ylation using Mtb PanB substrate at 20 uM by SDS-PAGE analysis
T2 sequence (whole entry): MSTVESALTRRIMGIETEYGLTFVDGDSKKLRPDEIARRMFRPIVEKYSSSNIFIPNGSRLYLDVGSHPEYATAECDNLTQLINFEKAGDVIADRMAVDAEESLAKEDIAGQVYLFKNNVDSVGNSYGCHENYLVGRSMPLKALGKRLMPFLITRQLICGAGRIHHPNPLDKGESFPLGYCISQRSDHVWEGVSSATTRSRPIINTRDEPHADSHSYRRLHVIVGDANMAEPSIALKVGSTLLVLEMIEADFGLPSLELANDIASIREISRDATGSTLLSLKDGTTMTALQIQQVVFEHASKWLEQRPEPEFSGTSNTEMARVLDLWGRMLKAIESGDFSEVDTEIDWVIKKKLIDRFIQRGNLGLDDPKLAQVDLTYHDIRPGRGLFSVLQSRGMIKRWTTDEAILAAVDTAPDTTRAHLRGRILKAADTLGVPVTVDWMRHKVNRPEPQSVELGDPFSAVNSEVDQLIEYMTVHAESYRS

Pup--protein ligase [11] = molecular target: T3, Pup--protein ligase (Mycobacterium tuberculosis, UniProt P9WNU7); assay: Inhibition of Mycobacterium tuberculosis PafA expressed in Escherichia coli BL-21(DE3) assessed as inhibition of pup-ylation using Mtb PanB substrate by SDS-PAGE analysis
T3 sequence (P9WNU7 whole entry): T1 sequence (whole entry)

[12] = molecular target: T1, Pup--protein ligase (Mycobacterium tuberculosis); assay: Binding affinity to Mycobacterium tuberculosis PafA expressed in Escherichia coli BL-21(DE3) assessed as increase in thermal stability at 40 uM incubated for 15 mins at 25 degC followed by incubated at 52 to 72 degC for 5 mins by CESTA analysis
[13] = molecular target: T1, Pup--protein ligase (Mycobacterium tuberculosis); assay: Inhibition of Mycobacterium tuberculosis PafA expressed in Escherichia coli BL-21(DE3) assessed as inhibition of pup-ylation using Mtb KasA substrate at 20 uM by SDS-PAGE analysis
[14] = molecular target: T1, Pup--protein ligase (Mycobacterium tuberculosis); assay: Binding affinity to Mycobacterium tuberculosis PafA expressed in Escherichia coli BL-21(DE3) assessed as increase in thermal stability by measuring change in melting temperature in at 50 uM by CESTA analysis
[15] = molecular target: T1, Pup--protein ligase (Mycobacterium tuberculosis); assay: Inhibition of Mycobacterium tuberculosis PafA expressed in Escherichia coli BL-21(DE3) assessed as inhibition of pup-ylation using Mtb DHFR substrate at 20 uM by SDS-PAGE analysis
Pup--protein ligase [16] = molecular target: T4, Pup--protein ligase (Corynebacterium glutamicum, UniProt Q8NQE1); assay: Activation of Corynebacterium glutamicum PafA expressed in Escherichia coli BL-21(DE3) assessed as pup-ylation using Mtb PanB substrate by SDS-PAGE analysis
T4 sequence (Q8NQE1 whole entry): T2 sequence (whole entry)

Pup--protein ligase [17] = molecular target: T4, Pup--protein ligase; assay: Activation of Corynebacterium glutamicum PafA expressed in Escherichia coli BL-21(DE3) assessed as pup-ylation using Mtb KasA substrate by SDS-PAGE analysis

COCC[n+]1c2c(n(Cc3cnccn3)c1C)C(=O)c1ccccc1C2=O
Activity [1]: Active
Activity [2]: Active
Activity [3]: Active
Activity [4]: Active
Activity [5]: Active

Oc1ccc(Cl)cc1Sc1cc(Cl)cc(Cl)c1
inhibition [6]: Active

Oc1ccccc1Sc1cc(Cl)cc(Cl)c1
inhibition [6]: Active

Oc1ccccc1Sc1cc(Cl)cc(Cl)c1Cl
inhibition [6]: Active

O=C(O)/C=C/c1ccc(-c2ccc(O)c(C34CC5CC(CC(C5)C3)C4)c2)cc1 [ADAROTENE]
inhibition [7]: Active
inhibition [8]: Active
inhibition [6]: Active
MIC90 [9]: 164 µM (≈ 61.4 µg/mL)
inhibition [10]: Active
IC50 (Pup--protein ligase [11]): 17.9 µM
Activity [12]: Active
inhibition [13]: Active
ΔTm [14]: 2.5 °C
inhibition [15]: Active

Oc1c(Cl)cc(Cl)cc1Sc1cc(Cl)cc(Cl)c1O [BITHIONOL]
inhibition [6]: Active
MIC90 [9]: 89.9 µM (≈ 32 µg/mL)
IC50 (Pup--protein ligase [11]): 15.9 µM

COCCn1c2c([n+](Cc3cnccn3)c1C)C(=O)c1ccccc1C2=O [SEPANTRONIUM]
EC50 (Pup--protein ligase [16]): 1.7 µM
EC50 (Pup--protein ligase [17]): 2 µM
